This is an account of results in patent US20260102377A1, “COMPOSITIONS AND METHODS FOR TREATING MYASTHENIA GRAVIS” (priority 2022, published 2026).

Where “and” joins values, the source holds several entries; their conditions need not be identical. Equal entries are not always repeated.

For this experiment, the system named is EAMG rats. The experiment in a line: Grip strength test after single dose of Mestinon and CIC-1 inhibitor alone or in combination. The following applies: per oral, 45 minutes post dosing, 0.375 mg/kg Mestinon, 20 mg/kg NMD670 or both. The experiment is classed as in vivo, rat. As for the experimental part:
To induce EAMG, 250 μL of emulsion of Complete Freund's Adjuvant, consisting of heat-inactivated Mycobacterium tuberculosis H37Ra in non-metabolizable oils, together with Phosphate-Buffered Saline (PBS) and 80 μg of the extracellular α-domain peptide fragment of the human nicotinic acetylcholine receptor (antigen) was injected subcutaneously in seven-week-old, anaesthetized Lewis rats. The disease-inducing antigen was supplied by the Hellenic Pasteur institute3. The emulsion was deposited at the tail base, left hindleg, and right foreleg. After injection, animals were allowed to recover and returned to their home cage maintained in ventilated racks under controlled temperature (20 to 22° C.) and humidity (˜55%) control, under a 12-h light/12-h dark cycle with food and water provided ad libitum. The animals had pathogen free status and the housing and changing system was designed to assure that the pathogen free status was preserved during the study. The EAMG rats were observed, weighed, and scored for MG symptoms weekly until symptoms of MG developed, whereafter animals were observed daily.
In EAMG animals with severe MG symptoms the effects of CIC-1 inhibitor and Mestinon (pyridostigmine) alone or in combination was assessed. […] The study was blinded to both the experimenter and during subsequent analysis. Animals were subjected to grip strength test before compound administration, as described above and then dosed per oral with either 0.375 mg/kg pyridostigmine bromide (Mestinon) (CAS-no 101-26-8), 20 mg/kg NMD670 or a combination of both pyridostigmine and NMD670. Grip strength was tested 45 minutes post dosing. […] The change in grip strengths was calculated for individual animals relative to the results obtained prior to administration of test article and then averaged.
Grip strength was measured on a BIOSEB BIO-GT3 Grip strength meter (force transducer, S/N 180271). […] Care was taken to ensure that the force recorded reflected the grip strength of the rat and not the force of the pulls conducted by the operator. […]

Consider `CN(C)C(=O)Oc1ccc[n+](C)c1` [Mestinon, pyridostigmine bromide, reference compound], for which the “Increase in Pulled Force (%)” value is 5±4% and 5.3 ± 3.8%.
